GI50 and TGI data for 11 compounds are collected here from PubChem BioAssay (NCI).

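Briefly, cells in 96-well plates were exposed to five compound concentrations for 48 h, and endpoints were estimated by linear interpolation. Here, GI50 denotes the concentration required for 50% inhibition of growth. The concentration for full growth arrest is given as TGI.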

Common to all, as to assay: DTP human tumour cell line panel, 48 h
Assay [1] deals with PC-3 prostate.
The test system of assay [2] is HCC-2998 colon.
For assay [3], the system named is NCI-H226 lung.
For assay [4], the system named is OVCAR-5 ovarian.
Assay [5] deals with OVCAR-4 ovarian.
In assay [6] the test system is NCI-H522 lung.
The test system of assay [7] is A498 renal.
Assay [8] relates to ACHN renal.
For assay [9], the system named is NCI-H23 lung.
The subject of assay [10] is COLO 205 colon.

As to `CN(CCOc1ccc(C#N)cc1)CCOc1ccc(C#N)cc1`, the GI50 – broadly, the concentration giving 50% growth inhibition – is 41.6 µM in assay [1]; over 100 µM in [2]; over 100 µM in assay [3]; over 100 µM in assay [4]; 67.5 µM in assay [5]; 4.98 µM in assay [6]. The GI50 was 14.8 µM in assay [7], 41.5 µM in assay [8], 22.6 µM in assay [9] and over 100 µM in assay [10]. For the same compound, the TGI in assay [1], in assay [2], in [3], in assay [4], in [5] and in assay [6] was over 100 µM in each case. Moreover, the TGI in assay [7], in [8], in [9] and in [10] was over 100 µM each time.

Turning to `O=C(CCl)N1c2ccccc2Sc2c1ccc1ccccc21`, the GI50 is 1.74 µM in assay [1]; 2.02 µM in assay [2]; 2.21 µM in [3]; 2.16 µM in assay [4]; 2.56 µM in assay [5]; 1.76 µM in assay [6]. The GI50 was 12.9 µM in assay [7], 1.83 µM in [8], 2.2 µM in assay [9] and 1.87 µM in assay [10]. Also, the TGI (commonly the concentration at which net growth stops) in assay [1] was 4.45 µM; in [2], 3.59 µM; in assay [3], 5.26 µM; in [4], 5.07 µM; in assay [5], 6.18 µM; in assay [6], 3.46 µM. For the same compound, the TGI in [7] is 25.9 µM; in assay [8], 3.69 µM; in assay [9], 5.11 µM; in [10], 4.06 µM.

Regarding `CC(=O)O[C@@H]1CC2C(C)(C)CCCC2(C)C2=C1C(=O)C(C(C)C)=CC2=O` (stereo not given in full), the GI50 in assay [1] is 2.45 µM; in assay [2] it was 0.405 µM; in [3], 0.518 µM; in assay [4], 2.26 µM; in assay [5], 0.838 µM; in [6] it was 1.76 µM. The GI50 in assay [7] was 1.06 µM; in assay [8], 0.644 µM; in [9], 1.87 µM; in assay [10], 1.88 µM. Further, the TGI in assay [1] was determined as 12.9 µM; in assay [2], 1.62 µM; in assay [3], 2.09 µM; in assay [4], 5.32 µM; in assay [5] it was 6.58 µM; in assay [6], 3.98 µM. Further, the concentration for total growth inhibition (TGI) in [7] was determined as 2.35 µM; in assay [8], 1.96 µM; in assay [9], 7.86 µM; in [10], 4.11 µM.

Turning to `CC1C(=O)C(C)C(c2ccccc2)N(N=O)C1c1ccccc1` (stereo not given), the TGI was 754 µM in assay [1]; over 1000 µM in assay [2]; 572 µM in assay [3]; over 881 µM in assay [4]; over 661 µM in assay [5]; over 601 µM in [6]. The TGI in assay [7] was 696 µM; in assay [8], 341 µM; in assay [9], over 779 µM; in assay [10] it was over 674 µM. Further, the GI50 is over 1000 µM in [2]; 260 µM in assay [3]; over 378 µM in [5]; over 385 µM in assay [6]; 332 µM in [9].

`COc1ccc2c(c1)OC(N(C(C)=O)C(C)=O)=C(C#N)C2c1ccc(F)cc1` (stereo not given): the GI50 in assay [1] was 2.2 µM; in assay [2], 4.93 µM; in [3], 25.5 µM; in [4] it was 7.65 µM; in assay [5], 7.93 µM; in assay [6], 0.619 µM. Further, the GI50 in [7] was 2.43 µM; in assay [8], 4.18 µM; in assay [9], 4.44 µM; in assay [10], 2.2 µM. For the same compound, the TGI was over 100 µM in assay [1]; over 100 µM in assay [2]; over 100 µM in assay [3]; over 100 µM in assay [4]; over 100 µM in [5]; 18.3 µM in assay [6]. Also, the TGI was over 100 µM in assay [7], over 100 µM in assay [8], over 100 µM in [9] and 7.26 µM in assay [10].

For the compound `CN(C)C(=S)N=Nc1c(O)[nH]c2ccccc12`, the GI50 is 0.566 µM in [1]; 1.54 µM in assay [2]; 0.642 µM in [3]; 1.49 µM in assay [4]; 0.394 µM in assay [5]; 0.355 µM in [6]. Besides, the GI50 was 6.28 µM in [7], 0.526 µM in assay [8], 0.656 µM in [9] and 0.356 µM in [10]. In addition, the TGI was 29.7 µM in [1]; 17.2 µM in [2]; 6.43 µM in [3]; 21 µM in [4]; 5.59 µM in assay [5]; 11 µM in assay [6]. Moreover, the TGI is 20.4 µM in assay [7], 11.4 µM in assay [8], 25 µM in assay [9] and 3.56 µM in assay [10].

For the compound `CC(CNC(Cc1ccccc1)c1ccccc1)NC(Cc1ccccc1)c1ccccc1` (stereo not given), the GI50 in [1] was 2.3 µM; in assay [2], 2.03 µM; in [3], 1.94 µM; in [4], 2.73 µM; in [5] it was 2.59 µM; in assay [6], 1.63 µM. Also, the GI50 was 2.26 µM in assay [7], 2.93 µM in assay [8], 1.94 µM in assay [9] and 1.66 µM in assay [10]. Besides, the TGI in assay [1] came to 6.42 µM; in [2], 4.45 µM; in assay [3], 4.09 µM; in assay [4], 8.76 µM; in assay [5] it was 10.6 µM; in [6], 3.5 µM. Moreover, the TGI turned out to be 5.02 µM in assay [7], 8.85 µM in [8], 4.46 µM in assay [9] and 3.46 µM in assay [10].

As to `Clc1nc(Cl)c2c(ncn2C/C=C\Cn2cnc3c(Cl)nc(Cl)nc32)n1`, the GI50 in [1] was 2.31 µM; in [2], 1.5 µM; in assay [3], 1.76 µM; in assay [4], 1.96 µM; in assay [5] it was 1.73 µM; in [6], 0.697 µM. In addition, the GI50 in assay [7] is 12.4 µM; in [8], 1.83 µM; in [9] it was 1.72 µM; in assay [10] it was 1.46 µM. The TGI was 5.58 µM in assay [1]; 3.05 µM in [2]; 3.84 µM in [3]; 3.74 µM in assay [4]; 3.28 µM in assay [5]; 2.1 µM in assay [6]. Also, the TGI amounted to 25.6 µM in assay [7], 3.33 µM in assay [8], 3.93 µM in assay [9] and 3.01 µM in assay [10].

On to `COc1cc(Nc2nc(N[C@H]3CCCC[C@@H]3N)nc3cc[nH]c(=O)c23)cc(OC)c1`, for which the GI50 is 2.53 µM in assay [1]; 1.7 µM in assay [2]; 1.88 µM in assay [3]; 1.11 µM in assay [4]; 5.93 µM in assay [5]; 1.45 µM in assay [6]. The GI50 in assay [7] was 1.01 µM; in assay [8], 1.38 µM; in assay [9] it was 1.48 µM; in [10], 1.04 µM. Besides, the total growth inhibition concentration (TGI) in assay [1] is 20.8 µM; in assay [2] it was 11.5 µM; in [3], 12.4 µM; in [4] it was 14.6 µM; in [5] it was 20 µM; in assay [6], 4.55 µM. In addition, the TGI in assay [7] came to 10.1 µM; in [8] it was 19.9 µM; in assay [9], 15.8 µM; in [10], 2.49 µM.

Turning to `CC(C)(C)c1ccc(S(=O)(=O)N[C@H]2CC[C@H]3[C@@H]4CCc5cc(OS(=O)(=O)O)ccc5[C@H]4CC[C@]23C)cc1`, the GI50 in assay [1] is 4.19 µM; in assay [2], 4.09 µM; in [3], 1.59 µM; in assay [4], 1.88 µM; in assay [5], 2.49 µM; in assay [6], 1.93 µM. Besides, the GI50 in assay [7] is 1.5 µM; in assay [8] it was 2.01 µM; in assay [9], 2.6 µM; in [10] it was 1.83 µM. Besides, the TGI was 17.5 µM in [1]; 13.1 µM in assay [2]; 3.06 µM in assay [3]; 3.63 µM in assay [4]; 9.92 µM in assay [5]; 5.15 µM in assay [6]. Further, the TGI in [7] amounted to 3.04 µM; in assay [8], 4.24 µM; in assay [9] it was 9.15 µM; in [10] it was 3.29 µM.

Consider `OCCCCCCOc1ccc(-c2cc(-c3ccccn3)nc(-c3ccccn3)c2)cc1`, for which the total growth inhibition concentration (TGI) was determined as 5.31 µM in [1]; 16.3 µM in [2]; 1.06 µM in [3]; 4.14 µM in assay [4]; 4.81 µM in assay [5]; 3.32 µM in assay [6]. Also, the concentration for total growth inhibition (TGI) in assay [7] was 5.77 µM; in [8], 5.22 µM; in assay [9], 9.05 µM; in assay [10], 8.09 µM.
